Source: publication PMC5453931, “Cathelicidin-trypsin inhibitor loop conjugate represents a promising antibiotic candidate with protease stability” (Scientific Reports, 2017)
Values after ≈ are worked out from the molar mass of the structure shown. Where a SMILES comes first, the peptide text is derived from it.

Experiments:
B. subtilis = type: cell-based; details: 18 h
Procedure: (§1) A two-fold broth microdilution method described in our previous paper was used to determine the antimicrobial activities of parental and hybrid peptides. More than 30 strains including Gram-negative bacteria, Gram-positive bacteria and fungi were used in the current assay, in which the standard strains were stored in our lab and the clinical strains were collected from local hospitals. Briefly, bacteria were incubated in Mueller-Hinton broth (MH broth) at 37 °C to exponential phase and diluted to 10^6 CFU/mL. A serial dilution of peptide sample were prepared in 96-well microtiter plates (50 μL) and mixed with equal volume of microbial inoculums (50 μL). The plate was slowly shaken in the microbial incubator, and measured at A595 after incubation at 37 °C for 18 h. The minimal concentrations at which no microbial growth occurred were recorded as MIC (minimal inhibitory concentration) values. The traditional antibiotic ampicillin was used as positive control. The results are shown in an average of the MICs obtained from three independent experiments.

C. albican = type: cell-based; details: 18 h
Procedure: as §1

E. coli 08040726 = type: cell-based; details: 08040726, 18 h
Procedure: as §1

E. coli = type: cell-based; details: 18 h
Procedure: as §1

P. aeruginosa = type: cell-based; details: 18 h
Procedure: as §1

P. mirabilis = type: cell-based; details: 18 h
Procedure: as §1

S. aureus = type: cell-based; details: 18 h
Procedure: as §1

S. dysenteria = type: cell-based; details: two-fold broth microdilution, MH broth, 37 °C, 18 h, A595; mean of three independent experiments in duplicate
Procedure: as §1

Aeromonas veronii = assay: microbe, parasite or virus in culture; type: cell-based; details: 18 h
Outline: (§2)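 Two-fold broth microdilution in Mueller-Hinton broth: exponential-phase microbes were diluted to 10^6 CFU/mL, then mixed 1:1 with serially diluted peptide. Plates were shaken at 37 °C for 18 h and read at A595. MIC is the lowest concentration with no growth, averaged over three independent experiments.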

[1] = test system: Bacillus subtilis 08042313; assay: microbe, parasite or virus in culture; type: cell-based; details: 08042313, 18 h
Outline: as §2

[2] = test system: Candida albicans 08030102; assay: microbe, parasite or virus in culture; type: cell-based; details: 08030102, 18 h
Outline: as §2

E. Coli 08032823 = assay: microbe, parasite or virus in culture; type: cell-based; details: 08032823, 18 h
Outline: as §2

[3] = test system: Enterococcus faecium 08052315; assay: microbe, parasite or virus in culture; type: cell-based; details: 08052315, 18 h
Outline: as §2

[4] = test system: Escherichia coli ATCC25922; assay: microbe, parasite or virus in culture; type: cell-based; details: ATCC25922, 18 h
Outline: as §2

K. Pneumoniae 08031012 = assay: microbe, parasite or virus in culture; type: cell-based; details: 08031012, 18 h
Outline: as §2

K. Pneumoniae 08040202 = assay: microbe, parasite or virus in culture; type: cell-based; details: 08040202, 18 h
Outline: as §2

[5] = test system: Nocardia asteroides 08052412; assay: microbe, parasite or virus in culture; type: cell-based; details: 18 h
Outline: as §2

P. Aeruginosa 08021015 = assay: microbe, parasite or virus in culture; type: cell-based; details: 08021015, 18 h
Outline: as §2

Proteus mirabilis 1376 = assay: microbe, parasite or virus in culture; type: cell-based; details: 1376, 18 h
Outline: as §2

S. Aureus 08032615 = assay: microbe, parasite or virus in culture; type: cell-based; details: 08032615, 18 h
Outline: as §2

S. Aureus 08032706 = assay: microbe, parasite or virus in culture; type: cell-based; details: 08032706, 18 h
Outline: as §2

S. Aureus 08032810 = assay: microbe, parasite or virus in culture; type: cell-based; details: 08032810, 18 h
Outline: as §2

S. Maltophilia 090223 = assay: microbe, parasite or virus in culture; type: cell-based; details: 090223, 18 h
Outline: as §2

[6] = test system: Shigella dysenteriae 0804203; assay: microbe, parasite or virus in culture; type: cell-based; details: Gram-negative; two-fold broth microdilution, MH broth, 37 °C, 18 h; mean of three independent experiments in duplicates
Outline: as §2

Vibrio harveyi = assay: microbe, parasite or virus in culture; type: cell-based; details: 18 h
Outline: as §2

trypsin = assay: Protease stability, RP-HPLC analysis of degradation; type: in vitro ADME; details: trypsin, 300:1, 0.1 M NH4HCO3 pH 8.2, 37 °C, 6 h; RP-HPLC; Fig. 4
Procedure: To further examine the stability of TIH3F incubated with enzymes (trypsin and protease K) over time, the LC analysis of peptide degradation over a series of time spans (0, 6, 12, 24 h) was performed. TIH3F and protease solution were prepared in 0.1 M NH4HCO3 buffer (pH 8.2) to final molar ratio of 300:1, and incubated at 37 °C for 6, 12, and 24 h, respectively. Then 150 μL aliquots were taken at given time intervals, diluted with 150 μL of water/acetonitrile (60/40 v/v) containing 2% TFA, and analyzed by RP-HPLC (Thermo Scientific Syncronis C18 column, 250 mm × 4.6 mm, 5 μm), eluted with acetonitrile/water (containing 0.1% TFA) mixture of linear gradient concentration.

[7] = 20% fresh human serum, 37 °C, colonies surviving 1 × MIC, Fig. 3B
trypsin or proteinase K = details: peptide:protease 300/1 mol/mol, 30 min, 37 °C, then 1 × MIC 2 h with E. coli, S. aureus, C. albicans; colony counting; Fig. 3E
[8] = test system: C. albicans biofilm formation; assay: Biofilm inhibition assay (XTT); type: cell-based; details: Candida albicans, 4 μg/mL, 36 h, 35 °C, Fig. 2A
Procedure: TIH3F that has the best antifungal activity among the four peptides was chosen to examine the effect on the C. albicans biofilm formation and the established biofilm using previously described method with minor modifications. In the biofilm inhibition assay, after the incubation at 35 °C, C. Albicans was diluted to 1 × 10^6 CFU/mL in RPMI-1640 medium. Then 2 mL culture was added to each well of 6-well plates with coverslips at the bottom, and incubated at 35 °C in a humid chamber for 3 h. Non-adherent cells were then washed away by PBS, and series concentrations of TIH3F (0, 1, 2, 4 μg/mL) were added into the plate, with amphotericin B as control. The formation of the biofilm was determined by the XTT Cell Proliferation and Cytotoxicity Kit (KeyGEN BioTECH, Nanjing, China) after 36-h incubation. In the biofilm disruption assay, the biofilm was preformed as described above but with a longer incubation time up to 72 h. Then TIH3F and amphotericin B of series concentrations (0, 2.5, 5, 10, 25, 50 μg/mL) was added after non-adherent cells were washed out. The measurement of remaining biofilm was then determined. […] After washing with PBS, the plate was immediately photographed with fluorescence microscope.

[9] = test system: established C. albicans biofilm; assay: Biofilm disruption assay, established biofilm (XTT, PI/SYBR Green I); type: cell-based; details: 5 μg/mL, biofilm preformed 72 h, XTT metabolic activity; Fig. 2B
Procedure: TIH3F that has the best antifungal activity among the four peptides was chosen to examine the effect on the C. albicans biofilm formation and the established biofilm using previously described method with minor modifications. In the biofilm inhibition assay, after the incubation at 35 °C, C. Albicans was diluted to 1 × 10^6 CFU/mL in RPMI-1640 medium. Then 2 mL culture was added to each well of 6-well plates with coverslips at the bottom, and incubated at 35 °C in a humid chamber for 3 h. Non-adherent cells were then washed away by PBS, and series concentrations of TIH3F (0, 1, 2, 4 μg/mL) were added into the plate, with amphotericin B as control. The formation of the biofilm was determined by the XTT Cell Proliferation and Cytotoxicity Kit (KeyGEN BioTECH, Nanjing, China) after 36-h incubation. In the biofilm disruption assay, the biofilm was preformed as described above but with a longer incubation time up to 72 h. Then TIH3F and amphotericin B of series concentrations (0, 2.5, 5, 10, 25, 50 μg/mL) was added after non-adherent cells were washed out. The measurement of remaining biofilm was then determined. In order to further confirm the antifungal effect of TIH3F against C. albicans encased in biofilms, the established biofilm was treated with TIH3F (0, 5, 50 μg/mL), washed three times with PBS, and finally stained with 1 mL 1000-fold diluted PI/SYBR Green I at 30 °C in the dark for 20 min. After washing with PBS, the plate was immediately photographed with fluorescence microscope.

SMILES: CC(C)C[C@H](NC(=O)[C@H](CCCNC(=N)N)NC(=O)[C@H](CCCCN)NC(=O)[C@H](Cc1ccccc1)NC(=O)[C@H](Cc1ccccc1)NC(=O)[C@@H](N)CCCCN)C(=O)N[C@@H](CC(C)C)C(=O)N[C@@H](CCCCN)C(=O)N[C@@H](CO)C(=O)N[C@H](C(=O)N[C@@H](CCCNC(=N)N)C(=O)N[C@@H](CCCNC(=N)N)C(=O)N[C@@H](C)C(=O)N[C@H](C(=O)N[C@@H](CCCCN)C(=O)N[C@@H](CCCCN)C(=O)N[C@@H](Cc1ccccc1)C(N)=O)C(C)C)C(C)C [Hc3] (H-KFFKRLLKSVRRAVKKF-NH2)
- MIC B. subtilis (B. subtilis): 9.38 µg/mL (≈ 4.36 µM)
- MIC C. albican (C. albican): 9.38 µg/mL (≈ 4.36 µM)
- MIC E. coli 08040726 (E. coli 08040726): 37.5 µg/mL (≈ 17.4 µM)
- MIC E. coli (E. coli): 18.75 µg/mL (≈ 8.72 µM)
- MIC P. aeruginosa (P. aeruginosa): 9.38 µg/mL (≈ 4.36 µM)
- MIC P. mirabilis (P. mirabilis): 4.68 µg/mL (≈ 2.18 µM)
- MIC S. aureus (S. aureus): 9.38 µg/mL (≈ 4.36 µM)
- MIC S. dysenteria (S. dysenteria): 2.34 µg/mL (≈ 1.09 µM)
- MIC Aeromonas veronii (Aeromonas veronii): 9.38 µg/mL (≈ 4.36 µM)
- MIC Bacillus subtilis 08042313 [1]: 9.38 µg/mL (≈ 4.36 µM)
- MIC Candida albicans 08030102 [2]: 9.38 µg/mL (≈ 4.36 µM)
- MIC E. Coli 08032823 (E. Coli 08032823): 9.38 µg/mL (≈ 4.36 µM)
- MIC Enterococcus faecium 08052315 [3]: 9.38 µg/mL (≈ 4.36 µM)
- MIC Escherichia coli ATCC25922 [4]: 18.75 µg/mL (≈ 8.72 µM)
- MIC K. Pneumoniae 08031012 (K. Pneumoniae 08031012): 75 µg/mL (≈ 34.9 µM)
- MIC K. Pneumoniae 08040202 (K. Pneumoniae 08040202): 75 µg/mL (≈ 34.9 µM)
- MIC Nocardia asteroides 08052412 [5]: 4.69 µg/mL (≈ 2.18 µM)
- MIC P. Aeruginosa 08021015 (P. Aeruginosa 08021015): 9.38 µg/mL (≈ 4.36 µM)
- MIC Proteus mirabilis 1376 (Proteus mirabilis 1376): 4.68 µg/mL (≈ 2.18 µM)
- MIC S. Aureus 08032615 (S. Aureus 08032615): 9.38 µg/mL (≈ 4.36 µM)
- MIC S. Aureus 08032706 (S. Aureus 08032706): 75 µg/mL (≈ 34.9 µM)
- MIC S. Aureus 08032810 (S. Aureus 08032810): 75 µg/mL (≈ 34.9 µM)
- MIC S. Maltophilia 090223 (S. Maltophilia 090223): 9.38 µg/mL (≈ 4.36 µM)
- MIC Shigella dysenteriae 0804203 [6]: 2.34 µg/mL (≈ 1.09 µM)
- MIC Vibrio harveyi (Vibrio harveyi): 18.75 µg/mL (≈ 8.72 µM)
- degradation by trypsin (trypsin): the majority of which was rapidly digested
- bactericidal ability after incubation with human serum ([7]; 3 h): dropped more than half
- kill (%) after incubation with human serum ([7]; 6 h): almost diminished
- kill (%) / antimicrobial activity kept after incubation with human serum ([7]; 36 h): lost its bacterial inhibitory activity
- antimicrobial activity after treatment with trypsin or proteinase K (trypsin or proteinase K): almost lost its bactericidal ability

SMILES: C[C@@H]1[C@H](O)[C@@H](C)/C=C/C=C/C=C/C=C/C=C/C=C/C=C/[C@H](O[C@@H]2O[C@H](C)[C@@H](O)[C@H](N)[C@@H]2O)C[C@@H]2O[C@](O)(C[C@@H](O)C[C@@H](O)[C@H](O)CC[C@@H](O)C[C@@H](O)CC(=O)O[C@H]1C)C[C@H](O)[C@H]2C(=O)O [amphotericin B, reference compound]
- inhibition at 4 µg/mL [8]: 25%
- damage of established C. albicans biofilm [9]: remained intact
